Test results published in patent publication US20210228523A1, “MODULATORS OF SESTRIN-GATOR2 INTERACTION AND USES THEREOF” (Navitor Pharmaceuticals, Inc., priority 2017, published 2021).

System: mTORC1
Experiment: Western blot of pS6 in multiple regions of the rat brain
Format: in vivo
Details: Example C; NV-5138 160 mg/kg oral; 1 hr post-dose; ad libitum access to food
Description: Study Design: Ten (10) male rats weighing between 175 and 200 g were randomized into 2 study groups (n=5/group), following a 5-day acclimation period. Group 1 received a single administration of Veh by oral gavage and group 2 received a single administration of NV-5138 (160 mg/kg prepared in Veh) by oral gavage. One hour following administration, rats were sacrificed by conscious decapitation, plasma was collected for analysis of NV-5138 exposure in addition to the isolation of the PFC, hippocampus, striatum, neocortex and cerebellum by microdissection. Total protein extracts were prepared from the harvested tissues and submitted to WB analysis followed by quantitative analysis of selected mTORC1 substrates.
Formulation of NV-5138 (160 mg/ml): NV-5138 (Navitor, Lot #09) was prepared by dissolving in Veh at a concentration of 160 mg/mL. […]
Western Blot Analysis: Synaptosomes preparations (15 μg of total protein) were loaded and separated on NuPAGE 4-12% Bis-Tris gels and transferred to PVDF membrane (Immobilon-FL PVDF membrane, Millipore) using CAPS Buffer (10 mM 3-(Cyclohexylamino)-1-propanesulfonic acid, 12.5% Ethanol pH=10). […] Signals were quantified using the Odyssey Infrared Imaging System (LI-COR Bioscience). The resulting densitometric readings were used to generate a ratio of phopho-protein to α-tubulin. […]

`CC(C)(C[C@H](N)C(=O)O)C(F)F` [NV-5138] was tested, and the “activation of mTORC1 (pS6) in PFC, striatum, hippocampus, neocortex and cerebellum” value was “significant activation of mTORC1 in most, but not all of the major regions of the brain”.
